Measured values from a melting point compilation (Tetko et al.; mined from patent text by program, amines drawn as free bases though some values may be those of a salt).

In the case of `CCOc1ccc(-n2c(Cl)ccc2-c2ccc(S(N)(=O)=O)cc2)cc1`, the melting point is reported as 124 to 125 °C. With `CCCCc1nc2c(C)nc(C)cc2n1-c1ccc(CCOC(=O)NS(=O)(=O)c2ccc(C)cc2)cc1` the melting point was 162 °C. Compound `O=C(O)Cc1ccc(-c2ccc(F)cc2F)c(F)c1` has a melting point of 145 to 147 °C. Compound `CCOC(=O)C1=C(C)Nc2ccnc(OCC)c2C1c1ccccc1C(F)(F)F` (centres undefined) has a melting point of 91 to 94 °C. Compound `CC1(N)CCC(=O)N(C(=O)OCc2ccccc2)C1=O` (centres undefined) has a melting point of 150 to 152 °C. With `Cc1cccc(-c2ncc(NC(=O)OCc3ccccc3)c(=O)n2CC(=O)NC(Cc2ccccc2)C(=O)C(F)(F)F)c1` (centres undefined) the melting point was 128 to 132 °C. For `CCCCS(=O)(=O)N(C(=O)OC(C)(C)C)c1cc(O)ccc1OCc1ccccc1`, the melting point was 131 to 133 °C. With `COc1cc(C(C)=O)ccc1OCCCN1CCC(C(O)(c2cccc(F)c2)c2cccc(F)c2)CC1` the melting point was 149 to 151 °C. `CC(C)Nc1cccnc1N1CCN(C(=O)c2ccc(C(=O)N3CCN(CCOCCO)CC3)cc2)CC1` showed a melting point of 92 to 93 °C. Compound `O=C1c2ccccc2-c2c1c1ccc([N+](=O)[O-])cc1c(=O)n2CCCNS(=O)(=O)c1ccccc1` has a melting point of 258 to 259 °C. Compound `CN1CCC2(CC1)Nc1cc(Cl)c(Cl)cc1-n1cccc12` has a melting point of 214 to 215 °C. Work on `N#CCCc1ccnc(-c2nc(=O)c3ccccc3s2)c1` yielded a melting point of 178 to 179 °C. `CN(C(=O)Cn1c(-c2ccc(C(F)(F)F)cc2)nc2cccnc21)c1ccccc1` showed a melting point of 158 to 159 °C. Work on `CN(CC(=O)O)C(=O)c1cccc2c(Br)cccc12` yielded a melting point of 205 °C. Compound `Cc1cc2ccccc2n1Nc1ccncc1` has a melting point of 75 to 78 °C. With `CCOC(=O)Cc1c[nH]c2cc(C3CC3)nn2c1=O` the melting point was 280 to 283 °C. Compound `CCn1nc(-c2nc(C#N)c(NCc3ccc(OC)cc3)nc2-c2ccccc2)ccc1=O` has a melting point of 166 to 168 °C. In the case of `COC(=O)c1nc(-c2ccc(Cl)c(OC)c2F)nc(N)c1Br`, the melting point is reported as 173 to 175 °C. With `Cn1nnc(N(Cc2ccccc2)C(=O)C2CCCC2)n1` the melting point was 54 °C. With `Cc1ccc(S(=O)(=O)NC(=O)NCCC(F)=C(F)F)cc1` the melting point was 134 to 136 °C. For `COC(=O)n1c(SCc2ccccn2)nc2ccccc21`, the melting point was 78 °C. Compound `COc1ccc(C(C)COc2nc(N)c3ncn(C4OC(CO)C(O)C4O)c3n2)cc1` (centres undefined) has a melting point of 90 to 105 °C. With `CC(C)c1cccc(C(C)C)c1NC(=S)CCC(=O)c1ccccc1` the melting point was 168 to 169 °C. In the case of `CCCn1cc(Cc2ccc(C(=O)OC)cc2OC)c2cc(CCC(=O)O)ccc21`, the melting point is reported as 109 to 111 °C. `CCOP(C)(=O)CC(Cc1ccccc1)NS(=O)(=O)c1ccc(C)cc1` (centres undefined) showed a melting point of 121 to 122 °C. With `CC(C)(C)OC(=O)N1CCC[C@@H](O)[C@H](N)C1` the melting point was 64 to 67 °C. With `Cn1c(C(F)(F)F)cc(=O)n(-c2ccc(Cl)c(C3OCCCO3)c2)c1=O` the melting point was 87 to 92 °C. `CNC(Cc1ccc(Cl)cc1[N+](=O)[O-])c1ccsc1C` (centres undefined) gave a melting point of 44 to 46 °C. `O=C(O)Cc1cccc(Oc2cccc(-c3nnc(Nc4ccc(Cl)c(Cl)c4)s3)c2)c1` gave a melting point of 183 to 184 °C. `COc1cccc(CNC(=O)c2nc3onc(C)c3c(=O)[nH]2)c1` gave a melting point of 236 to 237 °C. In the case of `Nc1cc(C=C2c3ccccc3CCc3ccccc32)ccc1O`, the melting point is reported as 159 °C. Compound `CC(=C1SC(=O)NC1=O)c1ccc(OCCOc2c(-c3ccc(F)cc3)n(C)c3cc(F)ccc3c2=O)cc1` has a melting point of 276 to 278 °C. `Cc1nnc(-c2cn3c4c(cccc24)CCC3)o1` gave a melting point of 70 to 72 °C. Work on `COc1ccc(-c2nc(Sc3ccccc3NC(C)=O)[nH]c2-c2ccc(OC)cc2)cc1` yielded a melting point of 183 °C. In the case of `NCC(c1ccc(F)cc1)C1CCCCC1O` (mixture of isomers), the melting point is reported as 75 to 76 °C. In the case of `CC(C)(C)c1cc(NC(=O)C2CCCCC2C(=O)O)cc(C(C)(C)C)c1O` (centres undefined), the melting point is reported as 247 to 252 °C. In the case of `COC(=O)C#CC(=O)c1cccc(C)c1`, the melting point is reported as 36 to 38 °C. `COc1ccc(C(=O)Nc2ccc(Cl)c(Cl)c2)cc1NS(C)(=O)=O` showed a melting point of 226 to 228 °C. In the case of `COc1cc(OC)c(C(=O)CCCCCl)c(OC)c1`, the melting point is reported as 53 to 55 °C. For `COc1cc(C(=O)NS(=O)(=O)c2ccccc2C)ccc1Cn1ccc2ccc(CC(=O)NCC3CCCC3)cc21`, the melting point was 187 to 188 °C. Work on `NC(N)=NC(=O)Cn1c(Cl)ccc1Cl` yielded a melting point of 224 to 225 °C. Compound `CCc1cc(COc2nn(Cc3ccccc3)cc2C=O)ccc1OCc1nc(-c2ccco2)oc1C` has a melting point of 128 to 129 °C. In the case of `O=CC(=Cc1ccc(Cl)cc1)C(C=O)=Cc1ccc(Cl)cc1`, the melting point is reported as 172 to 173 °C. In the case of `COc1ccc(-c2nc(CNC(C)(C)C)nc3cc(OC)c(OC)cc23)cc1OC`, the melting point is reported as 120 to 122 °C. `CC(=O)NCCC1CCc2ccc3nc(CCCc4ccccc4)oc3c21` (centres undefined) gave a melting point of 95 to 97 °C. Work on `O=C1CCCCCN1CNC(=S)NCN1CCCC1=O` yielded a melting point of 147 to 148 °C. In the case of `O=C(O)c1ccc(/C=C\C(c2cc(Cl)c(Cl)c(Cl)c2)C(F)(F)F)cc1Br` (centres undefined), the melting point is reported as 54 to 64 °C. In the case of `CC(=O)C1CCC2C3CCC4CC(OC(=O)C(Cl)(Cl)Cl)CCC4(C)C3C(=O)CC12C` (centres undefined), the melting point is reported as 126 to 127 °C. Compound `O=C1SCCN1Cc1ccc(Cl)cc1` has a melting point of 68 to 69 °C. In the case of `COC(C)=CC(=O)Nc1cccc(Br)c1`, the melting point is reported as 110 °C. `O=C(CCCN1CCC(Cc2ccccc2)CC1)c1ccc2c(c1)Cc1cc(C(=O)CCCN3CCC(Cc4ccccc4)CC3)ccc1-2` gave a melting point of 135 to 137 °C. Work on `Cc1c(Cl)cc(N2CCN(CCCCN3C(=O)c4ccccc4S3(=O)=O)CC2)c2c1OCCO2` yielded a melting point of 136 to 137 °C. Work on `CC(=O)Nc1c(C(=O)c2ccccn2)[nH]c2cc(Cl)ccc12` yielded a melting point of 211 to 212 °C. With `CCN(CCCN1c2ccccc2N(C)C(=O)c2ccc(C)nc21)C(C)C` the melting point was 104 to 105 °C. `CCCCCS(=O)(=O)NC(=O)/C=C/c1ccc(OCCCOCC2CC2)cc1Oc1ncc(C(F)(F)F)cc1Cl` showed a melting point of 124 to 125 °C. `CCCS(=O)(=O)NC(=N[N+](=O)[O-])NCc1cnc(Cl)s1` gave a melting point of 105 to 107 °C. Work on `O=C(O)C(O)=CC(=O)c1cc(Cc2ccc(F)cc2)cn(Cc2ccccc2F)c1=O` yielded a melting point of 182 to 184 °C. Work on `CCNc1cc(-c2c(-c3cccc(C)c3)nc3cccnn23)ccn1` yielded a melting point of 151 to 153 °C. For `COc1ccc(C(=O)c2cnoc2C)cc1`, the melting point was 78 to 79 °C. `COc1ccc(/C=C/C(=O)CC(=O)/C=C/c2ccc(O)cc2Cl)cc1O` showed a melting point of 120 to 130 °C. For `COc1cc(CCl)cc(OC)c1OCc1nc(-c2ccccc2)oc1C`, the melting point was 118 to 119 °C. In the case of `CC(Sc1cc(C(C)(C)C)c(O)c(C(C)(C)C)c1)C(=O)CC(C)(O)C(C)Sc1cc(C(C)(C)C)c(O)c(C(C)(C)C)c1` (centres undefined), the melting point is reported as 123 to 128 °C. Compound `COc1cc(NC(=O)C(F)(F)F)cc(OC)c1C(C)=O` has a melting point of 172 to 173 °C. For `CCOC(=O)/C(=N\OCCN=[N+]=[N-])c1csc(N)n1`, the melting point was 123 to 124 °C. Compound `COC(=O)c1cccc(OC)c1S(=O)(=O)Cl` has a melting point of 106 to 108 °C. For `Cc1cnc2c(c1)C[C@H](Cc1ccc(O)cc1)CC2`, the melting point was 157 to 158 °C. For `CN(Cc1ccccc1)c1c(-c2ccc(S(C)(=O)=O)cc2)cnn(-c2cccc(Cl)c2)c1=O`, the melting point was 60 to 85 °C. In the case of `CN1CC[C@@H](c2c(O)cc(O)c3c(=O)cc(-c4ccc(Br)cc4Cl)oc23)[C@@H]1CO`, the melting point is reported as 155 to 156 °C. For `CC(C)CCn1c(=O)c2c(Cl)cc(Cl)cc2n(Cc2ccccc2)c1=O`, the melting point was 89 to 92 °C.
